Experimental data as given in patent US11932599B2, “Ferroptosis inducing compound, compositions comprising the same, and methods of inducing ferroptosis” (UNIVERSITY OF MASSACHUSETTS, priority 2021, dated 2024).

Legend:
HT-1080 cells [1] = assay: Cell viability assay (Alamar Blue), cytotoxicity in HT-1080 cells; type: cell-based, human; details: Homo sapiens
Experimental: (§1) Cell lines and media. In the following example, HT-1080 (Human fibrosarcoma harboring NrasQ61K) cells (obtained from ATCC) were grown in DMEM high-glucose media with 1% non-essential amino acids (Life Technologies) and 10% FBS. 143B cells were grown in DMEM high-glucose media with 1% glutamine and 10% FBS. Calu-1 cells were grown in McCoy's 5A media (Life Technologies) supplemented with 10% FBS. All the cell lines were grown at 37° C. under 5% CO2. Cell lines were not tested for mycoplasma. In addition, the panel of four lung cancer (NCI-H23; SK-Mes-1; Calu6 and A549) were purchased from ATCC. They were cultured according to the ATCC protocol of each cell line. The non-malignant breast epithelial cells (MCF10A) were maintained in DMEM/F12 medium supplemented with 5% horse serum, epidermal growth factor (20 ng/ml), insulin (10 μg/ml), hydrocortisone (0.5 mg/ml), cholera toxin (100 ng/ml), and penicillin/streptomycin.
(§2) Cell viability assay. 9,000 cells per 100 μl were seeded in each well in 96-well plates. Lethal compounds were dissolved in DMSO. In the mother plates, DMSO stock of each compound was further diluted with media to create 20 μM or 10 μm as highest concentrations, respectively and a twofold, 9-point dilution series was prepared. Cells were seeded for 24 h and media were replaced by the mother plate drug-dilution media. When ferroptosis inhibitors (for example, 500 nM Ferrostatin-1, 100 μM α-tocopherol, 152 μM deferoxamine) were used in cotreatments with lethal inducers, they were supplemented to cell culture when the lethal compounds were added, and the cells were then incubated for 48 h. When other cell-death-modulating compounds (100 nM sodium selenite) were used in cotreatments, they were supplemented to cell culture for 24 h before lethal compounds were added to cell culture, after which cells were further incubated for 48 h at 37° C. under 5% CO2. On the day of the viability measurement, we added 25 μl per well of 50% Alamar Blue diluted in media (Life Technologies) and further incubated the cells at 37° C. for 6 h. Fluorescence intensity (excitation/emission: 540/590) was measured with a Victor 3 plate reader (PerkinElmer), and the normalized viability was calculated as VL=(IL−I0)/(IV−I0), where VL is the normalized viability, I0 is the raw fluorescence intensities from the wells containing media, IV is the cells treated with a vehicle (negative control), and IL is the cells with the lethal compound (L), respectively. The viability was typically measured in at least biological duplicate. A representative dose-response curve, the mean and standard error of normalized viability from one replicate were plotted.
Statistical analysis and data visualization. Dose-response curve plotting and EC50 computation were performed with Prism 6.0c (GraphPad Software).
Various compounds were selected for analysis of their cytotoxicity in HT-1080 cells according to the procedure described above.

HT-1080 cells [2] = assay: Cell viability assay in HT-1080 cells, cotreatment with cell-death inhibitors; type: cell-based, human; details: HT-1080, 48 h; for EC50: Homo sapiens, read-out: EC50 (μM) of TKD1079 + inhbitor
HT-1080 cells [3] = assay: Analysis of ROS generation: lipid ROS by C11-BODIPY flow cytometry; type: cell-based, human; details: C11-BODIPY (2 μM), 4 hours
Experimental: Analysis of ROS Generation. 200,000 HT-1080 cells were seeded in six-well plates at 37° C. for 17 h. Cells were treated with TKD1079 compound, trypsinized, pelleted, and washed once with PBS. For lipophilic or aqueous ROS detection, cells were re-suspended in Hanks' Balanced Salt Solution (HBSS; Life Technologies) containing test compounds as well as C11-BODIPY(581/591) (2 μM) (Life Technologies), and incubated for 10 min at 37° C. Cells were then pelleted, re-suspended in 250 μL HBSS in a BD Falcon tube, and analyzed using a BD Accuri C6 flow cytometer (BD Biosciences). Both dyes were measured in the FL1 channel.

NCI-H23 cells = assay: Cell viability assay, cytotoxicity in NCI-H23 cells; type: cell-based; details: 48 hours
Experimental: as §1
Cell viability assay. 9,000 cells per 100 μl were seeded in each well in 96-well plates. Lethal compounds were dissolved in DMSO. In the mother plates, DMSO stock of each compound was further diluted with media to create 20 μM or 10 μm as highest concentrations, respectively and a twofold, 9-point dilution series was prepared. […] Fluorescence intensity (excitation/emission: 540/590) was measured with a Victor 3 plate reader (PerkinElmer), and the normalized viability was calculated as VL=(IL−I0)/(IV−I0), where VL is the normalized viability, I0 is the raw fluorescence intensities from the wells containing media, IV is the cells treated with a vehicle (negative control), and IL is the cells with the lethal compound (L), respectively. The viability was typically measured in at least biological duplicate. […]
In addition, the compound TKD1079 was also analyzed for cytotoxicity in four different lung cancer cell lines according to the procedure described above. […] Cytotoxicity was also determined against MCF10A non-malignant breast epithelial cell, NCI-H1299 human non-small cell lung carcinoma cell line, and Beas-2B epithelial cells isolated from normal human bronchial epithelium.

Beas-2B epithelial cells = assay: Cell viability assay, cytotoxicity in Beas-2B cells; type: cell-based; details: 48 hours
Experimental: as §2, with “When other cell-death-modulating compounds (100 nM sodium selenite) were used in cotreatments, they were supplemented to cell culture for 24 h before lethal compounds were added to cell culture, after which cells were further incubated for 48 h at 37° C. under 5% CO2. On the day of the viability measurement, we added 25 μl per well of 50% Alamar Blue diluted in media (Life Technologies) and further incubated the cells at 37° C. for 6 h.” left out, “A representative dose-response curve, the mean and standard error of normalized viability from one replicate were plotted.” left out
(§3) In addition, the compound TKD1079 was also analyzed for cytotoxicity in four different lung cancer cell lines according to the procedure described above. […]

[4] = test system: MCF10A non-malignant breast epithelial cell; assay: Cell viability assay, cytotoxicity in MCF10A cells; type: cell-based; details: 48 hours
Experimental: as §1, with “The non-malignant breast epithelial cells (MCF10A) were maintained in DMEM/F12 medium supplemented with 5% horse serum, epidermal growth factor (20 ng/ml), insulin (10 μg/ml), hydrocortisone (0.5 mg/ml), cholera toxin (100 ng/ml), and penicillin/streptomycin.” left out
(§4) Cell viability assay. […] Fluorescence intensity (excitation/emission: 540/590) was measured with a Victor 3 plate reader (PerkinElmer), and the normalized viability was calculated as VL=(IL−I0)/(IV−I0), where VL is the normalized viability, I0 is the raw fluorescence intensities from the wells containing media, IV is the cells treated with a vehicle (negative control), and IL is the cells with the lethal compound (L), respectively. The viability was typically measured in at least biological duplicate. […]
as §3

[5] = test system: four lung cancer cell lines (NCI-H23, Calu6, A549, SK-Mes-1); assay: Cell viability of four lung cancer cell lines cotreated with ferrostatin-1; type: cell-based; details: ferrostatin-1 500 nM, 48 h
Experimental: as §1, with “The non-malignant breast epithelial cells (MCF10A) were maintained in DMEM/F12 medium supplemented with 5% horse serum, epidermal growth factor (20 ng/ml), insulin (10 μg/ml), hydrocortisone (0.5 mg/ml), cholera toxin (100 ng/ml), and penicillin/streptomycin.” left out
as §4

[6] = HT-1080, HT-1080 cells, compound alone, read-out: EC 50

Q: With `CCC(CC)NS(=O)(=O)c1ccc2c(c1)C(=NO)c1cc(S(=O)(=O)NC(CC)CC)ccc1-2` [TKD1034D, 9-(hydroxyimino)-N^2,N^7-di(pentan-3-yl)-9H-fluorene-2,7-disulfonamide] as the molecule, how does the EC50 (HT-1080 cells [1]; [6]) read?
A: 0.51 µM

Q: How did the EC50 (HT-1080 cells [1]; [6]) turn out when `CCCNS(=O)(=O)c1ccc2c(c1)C(=NO)c1cc(S(=O)(=O)NCCC)ccc1-2` [TKD1034E, 9-(hydroxyimino)-N^2,N^7-dipropyl-9H-fluorene-2,7-disulfonamide] was run?
A: 5.67 µM

Q: `C#CC1(O)c2cc(S(=O)(=O)NC3CCCCC3)ccc2-c2ccc(S(=O)(=O)NC3CCCCC3)cc21` [TKD1066, N^2,N^7-dicyclohexyl-9-ethynyl-9-hydroxy-9H-fluorene-2,7-disulfonamide] was tested. Which EC50 (HT-1080 cells [1]; [6]) did it give?
A: 4.59 µM

Q: For `O=S(=O)(NC1CC2CCC1C2)c1ccc2c(c1)C(=NO)c1cc(S(=O)(=O)NC3CC4CCC3C4)ccc1-2` (stereo not shown) [TKD1079, N^2,N^7-di(bicyclo[2.2.1]heptan-2-yl)-9-(hydroxyimino)-9H-fluorene-2,7-disulfonamide], which EC50 (HT-1080 cells [1]; HT-1080, 48 h, HT-1080 cells, 48 hours, no inhibitor, read-out: EC50 (μM) of TKD1079) is on record?
A: 0.0797 µM

Q: What about the EC50 (HT-1080 cells [1]; [6]) of the same molecule?
A: 0.079 µM

Q: What about the “Slectivity in fold [EC50 (TKD1079 + inhibitor)/ EC50 inhbitor]” value (HT-1080 cells [2]; DFOM (152 μM)) of the same molecule?
A: 34.2 fold

Q: What about the “Slectivity in fold [EC50 (TDK1079 + inhibitor)/ EC50 inhbitor]” value (HT-1080 cells [2]; Ebselen (5 μM)) of the same molecule?
A: 5.8 fold

Q: And the “Slectivity in fold [EC50 (TKD1079 + inhibitor)/ EC50 inhbitor]” value (HT-1080 cells [2]; Fer 1 (500 nM))?
A: 68.8 fold

Q: What about the “Slectivity in fold [EC50 (TDK1079 + inhibitor)/ EC50 inhbitor]” value (HT-1080 cells [2]; Selenite (100 nM)) of the same molecule?
A: 9.5 fold

Q: And the “Slectivity in fold [EC50 (TDK1079 + inhibitor)/ EC50 inhbitor]” value (HT-1080 cells [2]; TOFA (10 μM))?
A: 148.7 fold

Q: What about the “Slectivity in fold [EC50 (TDK1079 + inhibitor)/ EC50 inhbitor]” value (HT-1080 cells [2]; Trolox (100 μM)) of the same molecule?
A: 11.6 fold

Q: What about the “Slectivity in fold [EC50 (TKD1079 + inhibitor)/ EC50 inhbitor]” value (HT-1080 cells [2]; ZVAD 45 μM) of the same molecule?
A: 0.6 fold

Q: What about the “blocking of the compound's lethality by the apoptosis inhibitor pathway (ZVAD)” value (HT-1080 cells [2]; ZVAD 45 μM) of the same molecule?
A: did not block

Q: What about the “Slectivity in fold [EC50 (TKD1079 + inhibitor)/ EC50 inhbitor]” value (HT-1080 cells [2]; aToc (100 μM)) of the same molecule?
A: 13.5 fold

Q: What about the EC50 (HT-1080 cells [2]; cotreated with DFOM (152 μM)) of the same molecule?
A: 2.73 µM

Q: What about the EC50 (HT-1080 cells [2]; cotreated with Ebselen (5 μM)) of the same molecule?
A: 0.459 µM

Q: And the EC50 (HT-1080 cells [2]; cotreated with Fer 1 (500 nM))?
A: 5.48 µM

Q: And the EC50 (HT-1080 cells [2]; cotreated with Selenite (100 nM))?
A: 0.758 µM

Q: What about the EC50 (HT-1080 cells [2]; cotreated with TOFA (10 μM)) of the same molecule?
A: 11.8 µM

Q: And the EC50 (HT-1080 cells [2]; cotreated with Trolox (100 μM))?
A: 0.924 µM

Q: And the EC50 (HT-1080 cells [2]; cotreated with ZVAD (45 μM))?
A: 0.051 µM

Q: And the EC50 (HT-1080 cells [2]; cotreated with aToc (100 μM))?
A: 1.08 µM

Q: And the “lipid ROS generation during cell death” value (HT-1080 cells [3])?
A: increased

Q: What about the “ferroptosis induction in NCI-H23 using ferroptosis inhibitors” value (NCI-H23 cells; NCI-H23, DFOM (152 μM) and Fer-1 (0.5 μM)) of the same molecule?
A: induces ferroptosis

Q: And the “cytotoxicity (cell viability) in NCI-H23 cells” value (NCI-H23 cells)?
A: highly potent

Q: And the “cytotoxicity in normal human lung Beas-2B cells” value (Beas-2B epithelial cells)?
A: without harming

Q: And the “cytotoxicity in breast MCF10A cells” value [4]?
A: without harming

Q: And the “cytotoxicity in the presence of Fer-1” value [5]?
A: blocked

Q: For `O=S(=O)(NC1CCCCC1)c1ccc2c(c1)C(Br)c1cc(S(=O)(=O)NC3CCCCC3)ccc1-2` [TKD1100, 9-bromo-N2,N^7-dicyclohexyl-9H-fluorene-2,7-disulfonamide], which EC50 (HT-1080 cells [1]; [6]) is on record?
A: 3.56 µM

Q: How did the “cytotoxicity (cell viability) in NCI-H23 cells” value (NCI-H23 cells) turn out when `O=S(=O)(NC1C2CC3CC(C2)CC1C3)c1ccc2c(c1)C(=NO)c1cc(S(=O)(=O)NC3C4CC5CC(C4)CC3C5)ccc1-2` (stereo not shown) [TKD2043, N^2,N^7-di(adamantan-2-yl)-9-(hydroxyimino)-9H-fluorene-2,7-disulfonamide] was run?
A: significantly more potent than TKD1079 and FIN56

Q: With `CC(C)CNS(=O)(=O)c1ccc2c(c1)C(=NO)c1cc(S(=O)(=O)NCC(C)C)ccc1-2` [TKD10416, 9-(hydroxyimino)-N^2,N^7-diisobutyl-9H-fluorene-2,7-disulfonamide] as the molecule, how does the EC50 (HT-1080 cells [1]; [6]) read?
A: 4.35 µM
